Source: US20250206727A1, “HETEROCYCLIC SUBSTITUTED AROMATIC COMPOUND, PREPARATION METHOD THEREFOR, HERBICIDAL COMPOSITION AND APPLICATION” (QINGDAO KINGAGROOT CHEMICAL COMPOUND CO., LTD., priority 2022, published 2025)

Legend:
Test in all cases: Post-emergence test on weeds (greenhouse, spray at 2-3 leaf stage)
Type in all cases: in vivo
Parameters in all cases: key: Level 10: completely dead; Level 9: growth control rate greater than or equal to 90% and less than 100%; Level 8: growth control rate greater than or equal to 80% and less than 90%; Level 7: growth control rate greater than or equal to 70% and less than 80%; Level 6: growth control rate greater than or equal to 60% and less than 70%; Level 5: growth control rate greater than or equal to 50% and less than 60%; Level 4: growth control rate greater than or equal to 40% and less than 50%; Level 3: growth control rate greater than or equal to 30% and less than 40%; Level 2: growth control rate greater than or equal to 20% and less than 30%; Level 1: growth control rate less than 20%; Level 0: no effect
Conditions in all cases: 3 weeks after application
[1] = system: Setaria viridis
Summary of the method: (§1)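 Pot-grown plants were spray-tower treated two weeks after sowing with compound in acetone/Tween 80 plus 1.5 L/ha methyl oleate EC, at rates from 500 to 7.5 g a.i./ha. Fresh-weight growth control was scored 0–10 after 3 weeks in the greenhouse, averaged over triplicates.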

[2] = system: Abutilon theophrasti
Summary of the method: as §1

[3] = system: Echinochloa crus-galli
Summary of the method: as §1

[4] = system: Veronica polita
Summary of the method: as §1

[5] = system: Amaranthus retroflexus
Summary of the method: as §1

[6] = system: Digitaria sanguinalis
Summary of the method: as §1

CCOC(=O)C1ON=C(c2cc(-c3ncc(C(F)(F)F)cc3Cl)c(F)cc2Cl)O1 (stereo not drawn) [Compound 26]
10: activity level (fresh weight growth control rate), Setaria viridis ([1]; 60 g a.i./ha) | activity level (fresh weight growth control rate), Abutilon theophrasti ([2]; 60 g a.i./ha) | activity level (fresh weight growth control rate), Echinochloa crus-galli ([3]; 60 g a.i./ha) | activity level (fresh weight growth control rate), Veronica polita ([4]; 60 g a.i./ha) | activity level (fresh weight growth control rate), Amaranthus retroflexus ([5]; 60 g a.i./ha) | activity level (fresh weight growth control rate), Digitaria sanguinalis ([6]; 60 g a.i./ha)

CCOC(=O)C1(C)ON=C(c2cc(-c3ccc(C(F)(F)F)cn3)c(F)cc2Cl)O1 (stereo not drawn) [Compound 29]
10: activity level (fresh weight growth control rate), Setaria viridis ([1]; 60 g a.i./ha) | activity level (fresh weight growth control rate), Abutilon theophrasti ([2]; 60 g a.i./ha) | activity level (fresh weight growth control rate), Echinochloa crus-galli ([3]; 60 g a.i./ha) | activity level (fresh weight growth control rate), Veronica polita ([4]; 60 g a.i./ha) | activity level (fresh weight growth control rate), Amaranthus retroflexus ([5]; 60 g a.i./ha) | activity level (fresh weight growth control rate), Digitaria sanguinalis ([6]; 60 g a.i./ha)

CCOC(=O)C1(C)ON=C(c2cc(-c3ncc(C(F)(F)F)cc3C)c(F)cc2Cl)O1 (stereo not drawn) [Compound 30]
10: activity level (fresh weight growth control rate), Setaria viridis ([1]; 60 g a.i./ha) | activity level (fresh weight growth control rate), Abutilon theophrasti ([2]; 60 g a.i./ha) | activity level (fresh weight growth control rate), Echinochloa crus-galli ([3]; 60 g a.i./ha) | activity level (fresh weight growth control rate), Veronica polita ([4]; 60 g a.i./ha) | activity level (fresh weight growth control rate), Amaranthus retroflexus ([5]; 60 g a.i./ha) | activity level (fresh weight growth control rate), Digitaria sanguinalis ([6]; 60 g a.i./ha)

CCOC(=O)C1(C)ON=C(c2cc(-c3ncc(Cl)cc3F)c(F)cc2Cl)O1 (stereo not drawn) [Compound 31]
10: activity level (fresh weight growth control rate), Setaria viridis ([1]; 60 g a.i./ha) | activity level (fresh weight growth control rate), Abutilon theophrasti ([2]; 60 g a.i./ha) | activity level (fresh weight growth control rate), Echinochloa crus-galli ([3]; 60 g a.i./ha) | activity level (fresh weight growth control rate), Veronica polita ([4]; 60 g a.i./ha) | activity level (fresh weight growth control rate), Amaranthus retroflexus ([5]; 60 g a.i./ha) | activity level (fresh weight growth control rate), Digitaria sanguinalis ([6]; 60 g a.i./ha)

CCOC(=O)C1(C)ON=C(c2cc(-c3ncc(C)cc3F)c(F)cc2Cl)O1 (stereo not drawn) [Compound 32]
10: activity level (fresh weight growth control rate), Setaria viridis ([1]; 60 g a.i./ha) | activity level (fresh weight growth control rate), Abutilon theophrasti ([2]; 60 g a.i./ha) | activity level (fresh weight growth control rate), Echinochloa crus-galli ([3]; 60 g a.i./ha) | activity level (fresh weight growth control rate), Veronica polita ([4]; 60 g a.i./ha) | activity level (fresh weight growth control rate), Amaranthus retroflexus ([5]; 60 g a.i./ha) | activity level (fresh weight growth control rate), Digitaria sanguinalis ([6]; 60 g a.i./ha)

CCOC(=O)C1(C)ON=C(c2cc(-c3ncc(C(F)(F)F)cc3OC)c(F)cc2Cl)O1 (stereo not drawn) [Compound 33]
10: activity level (fresh weight growth control rate), Setaria viridis ([1]; 60 g a.i./ha) | activity level (fresh weight growth control rate), Abutilon theophrasti ([2]; 60 g a.i./ha) | activity level (fresh weight growth control rate), Echinochloa crus-galli ([3]; 60 g a.i./ha) | activity level (fresh weight growth control rate), Veronica polita ([4]; 60 g a.i./ha) | activity level (fresh weight growth control rate), Amaranthus retroflexus ([5]; 60 g a.i./ha) | activity level (fresh weight growth control rate), Digitaria sanguinalis ([6]; 60 g a.i./ha)

CCOC(=O)C1(C)ON=C(c2cc(-c3ncc(C(F)(F)F)cc3F)c(F)cc2Cl)O1 (stereo not drawn) [Compound 34]
10: activity level (fresh weight growth control rate), Setaria viridis ([1]; 60 g a.i./ha) | activity level (fresh weight growth control rate), Abutilon theophrasti ([2]; 60 g a.i./ha) | activity level (fresh weight growth control rate), Echinochloa crus-galli ([3]; 60 g a.i./ha) | activity level (fresh weight growth control rate), Veronica polita ([4]; 60 g a.i./ha) | activity level (fresh weight growth control rate), Amaranthus retroflexus ([5]; 60 g a.i./ha) | activity level (fresh weight growth control rate), Digitaria sanguinalis ([6]; 60 g a.i./ha)

CCOC(=O)C1(C)ON=C(c2cc(-c3ncc(F)cc3Cl)c(F)cc2Cl)O1 (stereo not drawn) [Compound 35]
10: activity level (fresh weight growth control rate), Setaria viridis ([1]; 60 g a.i./ha) | activity level (fresh weight growth control rate), Abutilon theophrasti ([2]; 60 g a.i./ha) | activity level (fresh weight growth control rate), Echinochloa crus-galli ([3]; 60 g a.i./ha) | activity level (fresh weight growth control rate), Veronica polita ([4]; 60 g a.i./ha) | activity level (fresh weight growth control rate), Amaranthus retroflexus ([5]; 60 g a.i./ha) | activity level (fresh weight growth control rate), Digitaria sanguinalis ([6]; 60 g a.i./ha)

CCOC(=O)C1(C)ON=C(c2cc(-c3ncc(C(F)(F)F)cc3Cl)c(F)cc2Cl)O1 (stereo not drawn) [Compound 39]
10: activity level (fresh weight growth control rate), Setaria viridis ([1]; 15 g a.i./ha) | activity level (fresh weight growth control rate), Abutilon theophrasti ([2]; 15 g a.i./ha) | activity level (fresh weight growth control rate), Echinochloa crus-galli ([3]; 15 g a.i./ha) | activity level (fresh weight growth control rate), Veronica polita ([4]; 15 g a.i./ha) | activity level (fresh weight growth control rate), Amaranthus retroflexus ([5]; 15 g a.i./ha) | activity level (fresh weight growth control rate), Digitaria sanguinalis ([6]; 15 g a.i./ha)

CCOC(=O)C1(C)ON=C(c2cc(-c3ncc(Cl)cc3Cl)c(F)cc2Cl)O1 (stereo not drawn) [Compound 40]
10: activity level (fresh weight growth control rate), Setaria viridis ([1]; 60 g a.i./ha) | activity level (fresh weight growth control rate), Abutilon theophrasti ([2]; 60 g a.i./ha) | activity level (fresh weight growth control rate), Echinochloa crus-galli ([3]; 60 g a.i./ha) | activity level (fresh weight growth control rate), Veronica polita ([4]; 60 g a.i./ha) | activity level (fresh weight growth control rate), Amaranthus retroflexus ([5]; 60 g a.i./ha) | activity level (fresh weight growth control rate), Digitaria sanguinalis ([6]; 60 g a.i./ha)

CCOC(=O)C1(C)ON=C(c2cc(-c3ncc(C(F)(F)F)cc3Cl)c(F)cc2C(F)(F)F)O1 (stereo not drawn) [Compound 54]
10: activity level (fresh weight growth control rate), Setaria viridis ([1]; 60 g a.i./ha) | activity level (fresh weight growth control rate), Abutilon theophrasti ([2]; 60 g a.i./ha) | activity level (fresh weight growth control rate), Echinochloa crus-galli ([3]; 60 g a.i./ha) | activity level (fresh weight growth control rate), Veronica polita ([4]; 60 g a.i./ha) | activity level (fresh weight growth control rate), Amaranthus retroflexus ([5]; 60 g a.i./ha) | activity level (fresh weight growth control rate), Digitaria sanguinalis ([6]; 60 g a.i./ha)

CCOC(=O)C1(C)ON=C(c2cc(-c3ncc(C(F)(F)F)cc3Cl)c(F)cc2C#N)O1 (stereo not drawn) [Compound 56]
10: activity level (fresh weight growth control rate), Setaria viridis ([1]; 60 g a.i./ha) | activity level (fresh weight growth control rate), Abutilon theophrasti ([2]; 60 g a.i./ha) | activity level (fresh weight growth control rate), Echinochloa crus-galli ([3]; 60 g a.i./ha) | activity level (fresh weight growth control rate), Veronica polita ([4]; 60 g a.i./ha) | activity level (fresh weight growth control rate), Amaranthus retroflexus ([5]; 60 g a.i./ha) | activity level (fresh weight growth control rate), Digitaria sanguinalis ([6]; 60 g a.i./ha)

CCOC(=O)C1(CC)ON=C(c2cc(-c3ncc(C(F)(F)F)cc3F)c(F)cc2Cl)O1 (stereo not drawn) [Compound 58]
10: activity level (fresh weight growth control rate), Setaria viridis ([1]; 60 g a.i./ha) | activity level (fresh weight growth control rate), Abutilon theophrasti ([2]; 60 g a.i./ha) | activity level (fresh weight growth control rate), Echinochloa crus-galli ([3]; 60 g a.i./ha) | activity level (fresh weight growth control rate), Veronica polita ([4]; 60 g a.i./ha) | activity level (fresh weight growth control rate), Amaranthus retroflexus ([5]; 60 g a.i./ha) | activity level (fresh weight growth control rate), Digitaria sanguinalis ([6]; 60 g a.i./ha)
